Earlier results on one substance are cited in patent US20100267661A1, “BETA GLUCANS AND METHODS OF USE THEREOF” (ImmuDyne, Inc., priority 2009, published 2010).

The conditions of this data set: rats.

As to “(1,3)-β-D-glucan [particulate yeast (1,3)-β-D-glucan]”, the “Adverse or toxic effects” value is listed as “no adverse or toxic effects”.
